Reference: US5104859A, “Continuous administration of adenosine to reduce pulmonary vascular resistance” (priority 1990, dated 1992)
“Also recorded” adds a separate entry of the source.

How the values were obtained:
[1] = tested on: coronary bypass grafts; test: Coronary bypass graft flow and hemodynamics during coronary artery surgery
Method: It has been reported that coronary artery grafts occlude more frequently during the postoperative period when low graft-flow values are obtained during surgery. See Groudin et al, Circulation, 42: Suppl 3: 106-111 (1970).
In a study designed to investigate the use of adenosine to inhibit occlusion of coronary grafts, nine patients (age 45-65, all taking beta-blockers) were studied during coronary artery surgery. After premedication, morphine (10-15 mg) and scopolamine (0.4-0.6 mg), anesthesia was induced by fentanyl (30 mcg/kg.b.w.). Pancuronium (0.1 mg/kg b.w.) was given to facilitate endotracheal intubation. Anesthesia was maintained with fentanyl 0.5 mg/hour, N2 O (50%) in oxygen and droperidol (0.1 mg/kg b.w.). During bypass thiomebumal (5 mg/kg b.w.) was given. Nitrous oxide was not used after bypass. Extracorporeal circulation (ECC) was performed with a roller pump and a Shiley bubble oxyqenator primed with crystalloid solution. ECG (modified V5), an arterial line and a Swan-Ganz Catheter were used for monitoring and for hemodynamic measurements. Blood flow in bypass grafts (n=15, internal mammary and venous grafts), was measured with appropriate sized square wave electromagnetic flow probes (Nycotron 732). The study was performed 20-30 minutes after the termination of ECC. After a control period (5 min), adenosine (5.3 mg/ml. clinical solution) was continuously infused in a central vein in order to induce approximately 10% reduction of mean arterial blood pressure (about 30 to 50 ug per kg. per min.). Graft flow was continuously measured before and during a 10 or 30 minute infusion of adenosine and finally during the following 5 minute control period. Data are expressed as mean ±SEM and differences were tested with Student's paired t-test against the preceding period.

[2] = Clinical observations during and after cardiopulmonary bypass
Method: During cardiopulmonary bypass (CPB), mean arterial blood pressure (MABP) above 70 mmHg was treated with the vasodilator sodium nitroprusside (SNP), except in the final phase or rewarming. CPB was performed with SARN roller pump and a Shiley oxygenator (100A) primed with 2000 ml crystalloid solution (75 mg heparin). The perfusion rate was kept at approximately […] body surface. Moderate hypothermia (25° C.) was induced. Cardioplegia was obtained with Ringer's solution (with added potassium up to 20 mM/1). Heparin (3 mg/kg) was administered as a bolus injection before cannulation. The heparin effect was controlled by measurements of activated clotting time. (Hemocron® Int. Technidyne Corp, USA). […] At the termination of CPB, the heparin effect was antagonized with protamine (c. 1.3 mg/mg heparin). ACT was checked 10-20 min after the protamine injection. ACT values 120 sec were considered satisfactory.
Platelet count (Linson 431 A cell counter) and hematocrit were determined in arterial samples before anesthesia, after thoracotomy, during CPB at 10, 20, 40, 60, 80 and 100 min, 30 min after CPB and on the postoperative day. Platelet counts were expressed in percentage of preanesthesia levels and were corrected for hemodilution. MABP was monitored continuously via a catheter introduced in the radial artery. All patients received hypertonic mannitol (1-1.5 g/kg) during CPB and urine production was calculated as ml/.min of CPB (Table VI).
Postoperative bleeding was measured as the blood loss from the tube drainage from the end of operation until the postoperative morning.
In six cases the plasma adenosine levels were determined by high performance liquid chromatography (HPLC) (Fredholm and Sollevi, J. Physiol. (London), 313: 351-67 (1981) in arterial and in venous (venous lines to the oxygenator) blood. The adenosine metabolites inosine, hypoxanthine and uric acid were also determined by HPLC. The samples were collected as previously described (Sollevi, Acta. Physiol. Scand., 121: 165-72 (1984) at the intervals of 10, 20, 40 and 80 minutes during CPB and 20 minutes after CPB.
Statistical significance (controls v. adenosine group) was determinted with Student's t-test for unpaired data. For significance within the groups the Wilcoxon Rank Sum test was used. p […] 0.05 was regarded as significant.

[3] = Fredholm and Sollevi; cited from earlier work

Nc1ncnc2c1ncn2[C@@H]1O[C@H](CO)[C@@H](O)[C@H]1O [adenosine]
graft blood flow, post-operative low dose ([1]; 0.02 to 0.05 mg/kg/min, words): increase graft blood flow
graft flow ([1]; 30-50 ug per kg per min): doubled graft flow; also recorded: marked and reproducible increase in graft flow
myocardial work ([1]; 30-50 ug per kg per min): without increased myocardial work
arrhythmias ([1]; 49±4 ug/kg/minute): No arrhythmias were observed
heart rate, mean pulmonary artery pressure, central venous pressure, stroke index and left ventricular stroke work index ([1]; 49±4 ug/kg/minute): remained essentially unchanged
increase of cardiac output ([1]; 49±4 ug/kg/minute): 12%
reduction of mean arterial pressure ([1]; 49±4 ug/kg/minute): 12%
Cardiac output ([1]; control after adenosine): 5.3 ± 0.3 L/min
Left Ventricular Stroke Index ([1]; control after adenosine): 0.49 ± 0.04 Joule/n^2
Mean Arterial Pressure ([1]; control after adenosine): 85 ± 3 mmHg
Pulmonary Artery Pressure (mean) ([1]; control after adenosine): 19.9 ± 1.0 mmHg
RAP (mean) ([1]; control after adenosine): 5.8 ± 0.7 mmHg
Stroke Index ([1]; control after adenosine): 39.6 ± 2.5 ml/m^2
heart rate ([1]; control after adenosine): 81 ± 6 beats/min.
graft flow ([1]; control after adenosine, n = 15): 39 ± 5 mL/min
Cardiac output ([1]; during adenosine): 5.6 ± 0.3 L/min
Left Ventricular Stroke Index ([1]; during adenosine): 0.41 ± 0.03 Joule/n^2
Mean Arterial Pressure ([1]; during adenosine): 74 ± 3 mmHg
Pulmonary Artery Pressure (mean) ([1]; during adenosine): 18.8 ± 1.2 mmHg
RAP (mean) ([1]; during adenosine): 5.3 ± 0.4 mmHg
Stroke Index ([1]; during adenosine): 38.8 ± 2.0 ml/m^2
heart rate ([1]; during adenosine): 82 ± 15 beats/min.
graft flow ([1]; during adenosine, n = 15): 77 ± 7 mL/min
graft flow rate on termination of adenosine ([1]; in vivo): restored to its original value
atrio-ventricular conductance at low dose ([1]; post-operative low doses, words): without significant effect on atrio-ventricular conductance
systemic vasodilation at chosen infusion rate ([2]; 100 ug/kg/min, highest such rate in pilot cases): did not induce systemic vasodilation
Preoperative urine production ([2]; 0.1 mg per kg per min, with range in parentheses): 4.1 (1.1-9.5) ml/min. CPB
urine production during CPB ([2]; 500 ml/h in controls, p<0.01): 250 mL/h
MABP during CPB vs placebo ([2]; human, in vivo): did not differ significantly
postoperative blood loss vs control ([2]; human, in vivo): did not differ
MABP after CPB ([2]; no intergroup difference at end of operation): slightly lower MABP
patients with transient creatinine elevation ([2]; one control patient): two
patients requiring vasodilator treatment ([2]; placebo: seven required nitroprusside): No patient
transient elevation of serum creatinine above normal range ([2]; two postoperative days): 10-20%
plasma half-life [3]: 10 to 20 s
